Experimental data as given in ChEMBL document CHEMBL1136428, “Structure-activity relationships of novel anti-malarial agents. Part 6: N-(4-arylpropionylamino-3-benzoylphenyl)-[5-(4-nitrophenyl)-2-furyl]acrylic acid amides” (Bioorg Med Chem Lett, 2003).

Tested on: Plasmodium falciparum
Experiment: Anti-malarial activity against Plasmodium falciparum Dd2
Type: functional, organism-based

SMILES | IC50
O=C(/C=C/c1ccc(-c2ccc([N+](=O)[O-])cc2)o1)Nc1ccc(NC(=O)CCc2ccc(O)cc2)c(C(=O)c2ccccc2)c1 | 3300 nM
O=C(/C=C/c1ccc(-c2ccc([N+](=O)[O-])cc2)o1)Nc1ccc(NC(=O)CCc2cccc(C(F)(F)F)c2)c(C(=O)c2ccccc2)c1 | 630 nM
N[C@H](Cc1ccccc1)C(=O)Nc1ccc(NC(=O)/C=C/c2ccc(-c3ccc([N+](=O)[O-])cc3)o2)cc1C(=O)c1ccccc1 | 1200 nM
O=C(/C=C/c1ccc(-c2ccc([N+](=O)[O-])cc2)o1)Nc1ccc(NC(=O)CCc2ccc([N+](=O)[O-])cc2)c(C(=O)c2ccccc2)c1 | 1400 nM
CC(C)(C)OC(=O)N[C@H](Cc1ccccc1)C(=O)Nc1ccc(NC(=O)/C=C/c2ccc(-c3ccc([N+](=O)[O-])cc3)o2)cc1C(=O)c1ccccc1 | 900 nM
NC(Cc1ccc(C(F)(F)F)cc1)C(=O)Nc1ccc(NC(=O)/C=C/c2ccc(-c3ccc([N+](=O)[O-])cc3)o2)cc1C(=O)c1ccccc1 (configuration not stated) | 710 nM
O=C(/C=C/c1ccc(-c2ccc([N+](=O)[O-])cc2)o1)Nc1ccc(NC(=O)CCc2ccccc2C(F)(F)F)c(C(=O)c2ccccc2)c1 | 1100 nM
N[C@@H](Cc1ccccc1)C(=O)Nc1ccc(NC(=O)/C=C/c2ccc(-c3ccc([N+](=O)[O-])cc3)o2)cc1C(=O)c1ccccc1 | 580 nM
Cc1ccc(CCC(=O)Nc2ccc(NC(=O)/C=C/c3ccc(-c4ccc([N+](=O)[O-])cc4)o3)cc2C(=O)c2ccccc2)cc1 | 440 nM
CC(C)(C)OC(=O)NC(Cc1ccc(C(F)(F)F)cc1)C(=O)Nc1ccc(NC(=O)/C=C/c2ccc(-c3ccc([N+](=O)[O-])cc3)o2)cc1C(=O)c1ccccc1 (configuration not stated) | 3200 nM
COc1ccc(CCC(=O)Nc2ccc(NC(=O)/C=C/c3ccc(-c4ccc([N+](=O)[O-])cc4)o3)cc2C(=O)c2ccccc2)cc1 | 1300 nM

Next, values leading:

IC50 | SMILES
61 nM | O=C(/C=C/c1ccc(-c2ccc([N+](=O)[O-])cc2)o1)Nc1ccc(NC(=O)CCc2ccc(C(F)(F)F)cc2)c(C(=O)c2ccccc2)c1
170 nM | O=C(/C=C/c1ccc(-c2ccc([N+](=O)[O-])cc2)o1)Nc1ccc(NC(=O)CCc2ccc(Br)cc2)c(C(=O)c2ccccc2)c1
440 nM | O=C(/C=C/c1ccc(-c2ccc([N+](=O)[O-])cc2)o1)Nc1ccc(NC(=O)CCc2ccc(F)cc2)c(C(=O)c2ccccc2)c1
310 nM | O=C(/C=C/c1ccc(-c2ccc([N+](=O)[O-])cc2)o1)Nc1ccc(NC(=O)CCc2ccccc2)c(C(=O)c2ccccc2)c1
420 nM | CC(C)(C)OC(=O)N[C@@H](Cc1ccccc1)C(=O)Nc1ccc(NC(=O)/C=C/c2ccc(-c3ccc([N+](=O)[O-])cc3)o2)cc1C(=O)c1ccccc1
130 nM | O=C(/C=C/c1ccc(-c2ccc([N+](=O)[O-])cc2)o1)Nc1ccc(NC(=O)CCc2ccc(Cl)cc2)c(C(=O)c2ccccc2)c1
